Molecules are shown by their SMILES. Entries after “also recorded” stand apart in the source; their conditions may differ.

One assay has as its system MelanoDerm™ Skin Model. Nature of the assay: MelanoDerm assay, pigmentation of tissues (Example 12). Type of assay: cell-based, human. The following applies: day 7; 200 μM and 50 μM. As to the method: The MelanoDerm™ Skin Model will be exposed to the test article for a total of 7 days. […] (Berridge et al., 1996).
Ten and 25 microliters, respectively, of each test article will be applied to each tissue. Twenty five microliters of the positive and negative controls, respectively, will be applied to each tissue.
The definitive assay will include a negative control and a positive control. The MelanoDerm™ tissues designated to the assay negative control will be treated with 25 μL of sterile, deionized water. Twenty five microliters of 1% Kojic acid (prepared in sterile, deionized water and filtered at the time of preparation) will be used to dose the tissues designated to the assay positive control. The 1% Kojic acid will be stored in a tube covered with aluminum foil until used within 2 hours of preparation. The negative and positive control exposure times will be identical to those used for the test articles.
The exact procedures used to collect images of the tissues will be specified in the study workbook and report.
The trial will be conducted over a 7-day timeframe.
The exact procedures used to collect images of the tissues will be specified in the study workbook and report. Then, the viability of the tissues will be determined by MTT reduction as indicated below.

A further assay has as its system B16F1 cells. Nature of the assay: Annexin V assay (Example 16). The following applies: 100 uM. Type of assay: cell-based. As to the method: (§1) Cells were harvested and the cell number was determined using a Countess Cell Counter. The cells were diluted with culture medium to the desired density.
(§2) Test compounds were dissolved in DMSO to 30 mM stock. […] After the indicated incubation time, the plates were removed from the incubator for detection.
(§3) For the Annexin V assay, plates were removed from the incubator and culture media was removed. […] Plates were read using ImageXpress Nano.

A further assay has as its system MeWo cells. Nature of the assay: Annexin V assay (Example 16). Format: cell-based. The following applies: 100 uM. As to the method:
as §1, §2, §3

For the next assay, the system named is WM115 cells. Nature of the assay: Annexin V assay (Example 16). Format: cell-based. The note with it: 100 uM. As to the method: as §1, §2, §3
The subject of assay [1] is Caspase 3/7 in MeWo cells. Nature of the assay: Caspase-Glo 3/7 assay (Example 16). Format: cell-based. The note with it: 100 uM. As to the method:
as §1, §2
(§4) Caspase-Glo 3/7 reagents also were thawed and equilibrated to room temperature before the experiment.

Assay [2] relates to Caspase 3/7 in WM115 cells. Nature of the assay: Caspase-Glo 3/7 assay (Example 16). Type of assay: cell-based. The following applies: 100 uM. As to the method: as §1, §2, §4
Assay [3] relates to UV-induced erythema of the subject's skin. Nature of the assay: In vivo photoprotection proof of concept, UVB irradiation of treated skin sites (Example 38). Further details: species or system human. An excerpt: The Malassezin 1% formulation used in this study contained the following ingredients: Water (aqua)—65.939%; Dimethyl isosorbide—20.000%; Olive Oil Glycereth-8 Esters—3.000%; Glycerin—2.991%; Coconut Alkanes—2.700%; Hydroxyethyl Acrylate/Sodium Acryloyldimethyl Taurate Copolymer—1.700%; Malassezin—1.000%; Pentylene Glycol—1.000%; Phenoxyethanol—0.640%; Coco-Caprylate/Caprate—0.300%; Caprylyl Glycol—0.200%; Chlorphenesin—0.160%; Sorbitan Isostearate—0.140%; Tocopherol—0.100%; Polysorbate 60-0.080%; and Disodium EDTA—0.050%.
A Skin Type IV […] was included in this Proof of Concept study.
A template of 6 squares was placed on the lower left back (1.5 cm×1.5 cm) of the test subject.
Twenty-four hours after irradiation, the subject returned for MED assessment.
A second right lower square was treated twice daily from day 4 to day 7, and a third medial square for one application on day 7. The product vehicle was applied for 7 days twice daily on the left back. The subject returned to the research center for irradiation on day 7. Each test site was irradiated with 120 mJ of UVB exposure. The subject returned in 24 hours for assessment of phototoxicity/photoprotection.
The subject continued the experiment, receiving Malassezin 1% for a total of 14 days. […]

In assay [4] the test system is primary human melanocytes. The following applies: cited from earlier work.
For assay [5], the target named is T1, arylhydrocarbon receptor (AhR) (Homo sapiens, UniProt P35869).
T1 sequence (P35869 11-848): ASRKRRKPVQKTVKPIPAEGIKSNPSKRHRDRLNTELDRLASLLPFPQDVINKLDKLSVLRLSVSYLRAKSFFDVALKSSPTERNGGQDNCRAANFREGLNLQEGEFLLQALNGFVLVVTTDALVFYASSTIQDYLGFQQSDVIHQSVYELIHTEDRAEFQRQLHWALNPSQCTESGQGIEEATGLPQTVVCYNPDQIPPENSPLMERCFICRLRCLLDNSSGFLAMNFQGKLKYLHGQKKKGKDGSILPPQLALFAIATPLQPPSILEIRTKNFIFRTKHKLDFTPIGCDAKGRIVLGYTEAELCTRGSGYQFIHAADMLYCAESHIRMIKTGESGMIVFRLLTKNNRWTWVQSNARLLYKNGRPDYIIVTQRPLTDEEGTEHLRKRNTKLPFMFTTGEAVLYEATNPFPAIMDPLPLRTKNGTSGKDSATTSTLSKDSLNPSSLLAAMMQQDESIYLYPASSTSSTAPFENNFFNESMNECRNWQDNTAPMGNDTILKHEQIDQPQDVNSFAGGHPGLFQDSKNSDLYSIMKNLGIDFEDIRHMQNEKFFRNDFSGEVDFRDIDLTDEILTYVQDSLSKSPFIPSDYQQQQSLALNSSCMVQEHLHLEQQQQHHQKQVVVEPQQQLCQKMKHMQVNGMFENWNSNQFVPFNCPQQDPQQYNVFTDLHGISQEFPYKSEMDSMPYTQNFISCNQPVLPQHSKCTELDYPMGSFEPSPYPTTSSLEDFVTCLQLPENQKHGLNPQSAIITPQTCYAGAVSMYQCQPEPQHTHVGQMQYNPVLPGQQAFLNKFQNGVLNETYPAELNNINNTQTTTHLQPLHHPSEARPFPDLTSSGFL
Nature of the assay: HepG2-AhR-Luciferase assay. The following applies: EC50 (uM), Table 2; 24 hours of treatment.
Description: HepG2-AhR-Luc cells were purchased from Pharmaron, One-Glo Luciferase assay system was purchased from Promega. DMEM was purchased from Hyclone, and penicillin/streptomycin was purchased from Solabio.
Culture media for stably transfected HepG2 cells was prepared by supplementing DMEM with high glucose and L-glutamine, as well as 10% FBS.
HepG2-AhR-Luc cells were cultured in T-75 flasks at 37° C., 5% CO2, and 95% relative humidity. Cells were allowed to reach 80-90% confluence before detachment and splitting.
Cultivated cells were rinsed with 5 mL PBS. PBS was aspirated away, 1.5 mL trypsin was added to the flask, and cells were incubated at 37° C. for approximately 5 minutes or until the cells detached and floated. Trypsin was inactivated by adding excess serum-containing media.
The cell suspension was transferred to a conical tube and centrifuged at 120 g for 10 minutes to pellet the cells. Cells were resuspended in seeding media at a proper density. 40 μL of cells were transferred to a 384-well culture plate (5×10^3 cells/well). Plates were placed in the incubator at 37° C. for 24 hours.
Afterward, stock solutions of test compounds and omeprazole positive control were prepared. Compound solutions were transferred into the assay plate using Echo550. The plate was then placed back into the incubator for compound treatment.
Later, after 24 hours of treatment, the plate was removed from the incubator and allowed to cool at ambient temperature. 30 μL One-Glo reagent equal to that of the culture medium was added in each well. Cells were allowed to lyse for at least 3 minutes, and then measured in a luminometer.
Dose responses were graphed using the non-linear regression analysis in XLfit and EC50 values were also calculated.

For assay [6], the target named is T1, arylhydrocarbon receptor (AhR). Further details: HepG2 cells stably transfected with an AhR-responsive luciferase reporter gene plasmid; host or cells: HepG2-AhR-Luc (HepG2 stably transfected with an AhR-responsive luciferase reporter plasmid). The following applies: cited from earlier work.

Usually EC50 stands for the concentration at which the effect is half-maximal. Low readings indicate greater potency, high ones weaker potency. As to `O=Cc1c(Cc2c[nH]c3ccccc23)[nH]c2ccccc12` [Malassezin, malassezin], the pigmentation of tissues result in the assay with MelanoDerm™ Skin Model was “reduced pigmentation”. Further, the “cell death (Annexin V staining)” value in the assay on B16F1 cells, in the assay on MeWo cells and in the assay with WM115 cells was “induced cell death” in each case. Moreover, the “Caspase 3/7 activation” value in assay [1] and in assay [2] was “activated Caspase 3/7” each time. The “UV protection, conclusion of the study” value in [3] is “UV-protective properties”. For the same compound, the apoptosis induction result in assay [4] is on record as “induces apoptosis”. Also, it took 13.4 µM to reach a half-maximal effect in [5] (EC50). The AhR agonism result in [6] is given as “known agonist; also recorded: aryl hydrocarbon receptor agonist”.

The values are drawn from US11220491B2, “Photoprotective compositions containing Malassezia-derived compounds and/or chemical analogs thereof” (Versicolor Technologies, LLC, priority 2018, dated 2022).
